{"source": "patent US20160067221A1", "about": "“USE OF ERGOTHIONEINE FOR INDUCING ACTIVITY OF NRF2 IN CELL” (China Medical University, priority 2014, published 2016)", "tested_on": "Nrf2", "experiment": "Ergothioneine-induced Nrf2 nuclear translocation after kinase inhibitor pretreatment (Western blot)", "type": "cell-based, human", "settings": "inhibitor 2.5 μM 30 minutes, then 500 nM ergothioneine 1 hour", "procedure": "Given that the ergothioneine can activate the Nrf2 to induce the expression of the downstream antioxidant genes; this example further investigates the pathway of the Nrf2 activated by the ergothioneine.\nThe HaCaT cells are incubated with respective pharmacological inhibitors of p38 (SB203580; 20 μM), ERK (PD98059; 20 μM), JNK (SP600125; 20 μM), PI3K (LY294002; 20 μM), PKC (GF109203X; 2.5 μM), or ROS (NAC; 1 mM) for 30 minutes, and then incubated with 500 nM ergothioneine for 1 hour. After the incubation, nuclear extracts and cytosolic extracts are collected to observe the expression of the Nrf2 nuclear translocation. FIG. 12 illustrates that the ergothioneine induces a Nrf2-mediated antioxidant signaling pathway. The data result is represented by mean±SD values; n=3, wherein * represents ρ<0.05 compared to the control group."}
{"smiles": "CN(C)CCCn1cc(C2=C(c3c[nH]c4ccccc34)C(=O)NC2=O)c2ccccc21", "note": "[GF109203X]", "values": [{"measurement": "expression of the Nrf2 nuclear translocation", "value": "significantly inhibited"}]}
